The structures appear in SMILES notation. A value given as a limit tells only on which side of the number the result lay.

The results in this text go back to patent publication US20130165475A1, “DEUTERIUM-ENRICHED HETEROCYCLIC COMPOUNDS AS KINASE INHIBITORS” (ASCEPION PHARMACEUTICALS, INC., priority 2010, published 2013).

Series [1] has as its system Mouse liver microsome. Briefly: Liver microsomal stability assay, mouse. The settings on record: 40 μM, 37° C., 30 min, 1 mg/ml microsome proteins; class relative to deuterium non-enriched counterpart. On the set-up: key: A: the percentage of a compound remains is greater than that of its deuterium non-enriched counterpart; B: a result otherwise. The format is in vitro ADME. The method, then:
(§1) A standard liver microsomal stability assay can be used to test or screen the compounds of this invention and to identify compounds with enhanced metabolic stability due to the enrichment of deuterium in the compounds. Liver microsome proteins prepared from different species such as mouse and rat were obtained from a commercial source (Research Institute for Liver Diseases, Shanghai, China). The assay was conducted in 1.5% potassium hydrogenphosphate (K2HPO4) in the presence of liver microsome proteins at 1 mg/ml and supplemented with an […] (3.3 mM NADPH, 3.3 mM glucose-6-phosphate, 6 units/ml G6PDase, and 3.3 mM magnesium chloride). Test compound was added into the assay mixture to a final concentration of 40 μM and incubated at 37° C. for 0 or 30 minutes. The reaction was stopped by the addition of 20 μM Bifonazole/CAN. Samples were then centrifuged at 14000 rpm for 10 minutes to precipitate proteins. Supernatant were then transferred to microcentrifuge tubes and subject to reverse phase HPLC analysis to determine the concentration of test compound.
(§2) The percentage of compounds that remained in the assay reactions after a thirty-minute incubation at 37° C. is calculated as the ratio between the amount of compound remained after a thirty-minute and that after a zero-minute incubation.
(In general: Liver microsomes are vesicles of endoplasmic reticulum, rich in cytochrome P450 enzymes.)

Series [2] concerns the target T1, c-Met (Homo sapiens, UniProt P08581).
T1 construct: expressed in transfected cells; host or cells: CHO cells
Briefly: c-Met cell-based assay (ELISA, phosphor-/total c-Met in transfected CHO cells, HGF stimulated). The note with it: compound at 100 nM; CHO cells transfected with full length c-Met; HGF 100 ng/mL. The text has this: A standard cell-based assay for c-Met kinase activity can be used to test or screen the compounds of this invention and to identify c-Met antagonists. In this example, ELISA kits (R&D Systems, Inc., Minneapolis, Minn. 55413, USA) were used.
The activity of c-Met in cells depended on its autophosphorylation level by it specific growth factor-Hepatocyte growth factor (HGF). In order to induce the cell to produce c-Met, full length of c-Met sequence was cloned into PC-DNA3.1 vector, the plasmid was then transfected into CHO cells. After 48 hours, the expression of c-Met in transfected CHO cells was confirmed by regular western blotting.
A compound to be tested was first dissolved in DMSO to a concentration of 10 mM and stored at −20° C. One day before the screening, CHO cells transfected with full length c-Met plasmid were grown in DMEM medium without the presence of serum. On the day of screening procedure, the compounds with various concentration in DMSO (from 0.5 nM to 500 nM) were added into DMEM medium, two hours later, Hepatocyte growth factor (HGF) was added into the medium at the concentration of 100 ng/mL to stimulate the production of phosphor-c-Met. Cell lysate from approximately 5×10^5 transfected CHO cells were reacted with anti-phosphor c-Met or anti-total c-Met antibody in 96 well plates, in the presence of detection antibody. The phosphor-c-Met or total c-Met were detected with Streptavidin-HRP (R&D Systems), followed by chemiluminescent detection. The level of c-Met kinase activity was quantified as the ratio between the amount of phosphor- and that of total c-Met proteins.
For orientation: In an ELISA, binding on a coated surface is turned into a signal by an enzyme label.

Series [3] deals with Rat liver microsome. The experiment in a line: Liver microsomal stability assay, rat. On the set-up: key: A: the percentage of a compound remains is greater than that of its deuterium non-enriched counterpart; B: a result otherwise. The note with it: 40 μM, 37° C., 30 min, 1 mg/ml microsome proteins; class relative to deuterium non-enriched counterpart. The format is in vitro ADME. The method, then:
as §1, §2

The target in series [4] is T2, VEGFR2 (Homo sapiens, UniProt P35968).
T2 construct: expressed in transfected cells; host or cells: CHO cells
The experiment in a line: VEGFR2 cell-based assay (ELISA, phosphor-/total VEGFR2 in transfected CHO cells). The note with it: compound at 100 nM; CHO cells transfected with full length VEGFR2; FBS stimulation; read-out: % VEGFR2 kinase activity remains. The source says:
A standard cell-based assay for VEGFR2 kinase activity can be used to test or screen the compounds of this invention and to identify VEGFR2 antagonists. In this example, ELISA kits (R&D Systems, Inc., Minneapolis, Minn. 55413, USA) were used.
The activity of VEGFR2 in cells depended on its autophosphorylation level by various factors including growth factors. In order to induce the cell to produce VEGFR2, full length of VEGFR2 sequence was cloned into PC-DNA3.1 vector, the plasmid was then transfected into CHO cells. After 48 hours, the expression of VEGFR2 in transfected CHO cells was confirmed by regular western blotting.
A compound to be tested was first dissolved in DMSO to a concentration of 10 mM and stored at −20° C. One day before the test, CHO cells transfected with full length VEGFR2 plasmid were grown in Dulbecco's Modified Eagle Medium (DMEM) without the presence of serum. On the day of the test, the compounds with various concentrations in DMSO (from 0.5 nM to 500 nM) were added into DMEM. Two hours later, 20% of FBS (Fetal Bovine Serum) was added into the medium to stimulate the production of phosphor-VEGFR2. Cell lysate from approximately 5×10^5 transfected CHO cells were reacted with anti-phosphor VEGFR2 or anti-total VEGFR2 antibody in 96-well plates, in the presence of detection antibody. The phosphor-VEGFR2 or total VEGFR2 were detected with Streptavidin-HRP(R&D Systems), followed by chemiluminescent detection. The level of VEGFR2 kinase activity was quantified as the ratio between the amount of phosphor- and that of total VEGFR2 proteins.

T2 sequence (P35968 20-1356): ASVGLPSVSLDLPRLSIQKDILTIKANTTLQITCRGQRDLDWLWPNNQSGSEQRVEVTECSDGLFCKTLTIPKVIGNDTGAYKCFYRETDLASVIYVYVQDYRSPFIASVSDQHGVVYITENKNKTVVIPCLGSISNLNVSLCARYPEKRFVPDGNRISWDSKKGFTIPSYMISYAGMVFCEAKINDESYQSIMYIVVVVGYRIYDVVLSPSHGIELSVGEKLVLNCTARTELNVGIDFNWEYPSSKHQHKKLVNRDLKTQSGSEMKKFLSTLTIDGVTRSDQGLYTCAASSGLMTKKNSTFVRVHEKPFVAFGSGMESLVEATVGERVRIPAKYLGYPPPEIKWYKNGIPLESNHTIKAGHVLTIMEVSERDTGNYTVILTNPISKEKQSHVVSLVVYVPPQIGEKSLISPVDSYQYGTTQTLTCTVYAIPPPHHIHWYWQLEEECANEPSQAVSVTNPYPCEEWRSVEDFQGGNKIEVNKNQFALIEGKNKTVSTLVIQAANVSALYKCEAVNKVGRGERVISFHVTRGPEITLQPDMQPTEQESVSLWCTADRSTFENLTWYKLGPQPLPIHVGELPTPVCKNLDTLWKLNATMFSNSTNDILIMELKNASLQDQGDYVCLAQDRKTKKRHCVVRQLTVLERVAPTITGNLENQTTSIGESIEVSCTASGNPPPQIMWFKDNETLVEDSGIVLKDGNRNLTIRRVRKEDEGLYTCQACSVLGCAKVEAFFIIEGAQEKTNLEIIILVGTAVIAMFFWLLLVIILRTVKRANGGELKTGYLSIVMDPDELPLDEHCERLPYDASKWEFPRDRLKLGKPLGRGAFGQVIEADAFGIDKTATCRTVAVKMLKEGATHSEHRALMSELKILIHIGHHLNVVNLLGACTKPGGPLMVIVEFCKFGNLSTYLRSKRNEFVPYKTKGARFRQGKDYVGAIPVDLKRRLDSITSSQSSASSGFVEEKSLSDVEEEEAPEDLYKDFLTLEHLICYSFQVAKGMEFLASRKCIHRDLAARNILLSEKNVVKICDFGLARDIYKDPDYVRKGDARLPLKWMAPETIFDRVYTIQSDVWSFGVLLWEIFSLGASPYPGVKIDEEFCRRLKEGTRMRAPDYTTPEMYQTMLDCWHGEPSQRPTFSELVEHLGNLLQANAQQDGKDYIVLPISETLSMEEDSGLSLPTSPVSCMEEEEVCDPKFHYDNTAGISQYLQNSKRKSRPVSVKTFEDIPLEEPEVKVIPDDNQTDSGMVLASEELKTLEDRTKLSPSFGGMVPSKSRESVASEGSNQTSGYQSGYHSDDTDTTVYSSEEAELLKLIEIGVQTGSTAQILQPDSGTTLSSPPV
T1 sequence (P08581 25-1390): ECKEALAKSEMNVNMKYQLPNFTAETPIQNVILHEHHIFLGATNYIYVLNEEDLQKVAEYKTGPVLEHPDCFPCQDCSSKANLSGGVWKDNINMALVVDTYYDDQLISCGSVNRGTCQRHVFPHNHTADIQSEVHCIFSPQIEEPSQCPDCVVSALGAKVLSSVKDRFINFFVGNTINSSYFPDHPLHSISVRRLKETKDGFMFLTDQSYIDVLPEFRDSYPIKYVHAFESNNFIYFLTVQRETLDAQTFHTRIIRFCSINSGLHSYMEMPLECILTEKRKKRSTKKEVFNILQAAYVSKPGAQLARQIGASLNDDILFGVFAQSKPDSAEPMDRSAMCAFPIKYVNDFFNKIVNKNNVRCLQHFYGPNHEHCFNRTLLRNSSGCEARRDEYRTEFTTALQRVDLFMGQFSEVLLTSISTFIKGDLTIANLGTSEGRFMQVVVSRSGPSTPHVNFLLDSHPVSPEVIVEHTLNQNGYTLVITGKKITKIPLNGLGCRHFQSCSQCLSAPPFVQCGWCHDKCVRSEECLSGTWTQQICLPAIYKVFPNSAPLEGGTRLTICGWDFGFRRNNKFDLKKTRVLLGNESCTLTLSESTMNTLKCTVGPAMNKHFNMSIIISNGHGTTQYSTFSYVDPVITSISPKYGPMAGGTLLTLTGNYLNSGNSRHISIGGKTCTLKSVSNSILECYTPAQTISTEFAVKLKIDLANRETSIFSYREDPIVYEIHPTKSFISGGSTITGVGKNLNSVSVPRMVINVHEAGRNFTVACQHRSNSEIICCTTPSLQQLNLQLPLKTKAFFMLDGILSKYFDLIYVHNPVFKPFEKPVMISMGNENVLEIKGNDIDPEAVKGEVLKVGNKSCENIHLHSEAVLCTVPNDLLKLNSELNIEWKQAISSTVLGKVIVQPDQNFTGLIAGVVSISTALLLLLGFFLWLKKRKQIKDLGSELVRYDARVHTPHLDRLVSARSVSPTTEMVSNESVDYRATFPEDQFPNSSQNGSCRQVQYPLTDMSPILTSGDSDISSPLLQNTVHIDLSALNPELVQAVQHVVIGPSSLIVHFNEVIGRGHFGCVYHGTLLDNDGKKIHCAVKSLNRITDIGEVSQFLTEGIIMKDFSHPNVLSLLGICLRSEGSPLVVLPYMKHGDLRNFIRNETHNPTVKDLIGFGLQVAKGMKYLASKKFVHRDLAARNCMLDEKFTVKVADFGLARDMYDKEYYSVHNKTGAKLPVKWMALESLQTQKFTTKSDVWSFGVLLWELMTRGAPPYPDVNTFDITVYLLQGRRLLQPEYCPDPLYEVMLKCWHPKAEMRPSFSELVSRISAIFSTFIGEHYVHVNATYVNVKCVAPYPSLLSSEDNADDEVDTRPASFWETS

For `Cl.[2H]C([2H])([2H])Oc1ccc(Cl)cc1NC(=O)Nc1cccc2c1ccn2C([2H])([2H])c1ccnc2[nH]ccc12` [Example 8, 1-[5-chloro-2-(trideuteriomethoxy)phenyl]-3-[1-[dideuterio(1H-pyrrolo[2,3-b]pyridin-4-yl)methyl]indol-4-yl]urea hydrochloride], the “% of compound remained at the 30th minutes, Mouse liver microsome” value in series [1] is listed as “A”. The “% C-Met kinase activity remains” value in series [2] is reported as “A (the percentage of kinase activity remains is below 70%)”. Further, in series [3], the “% of compound remained at the 30th minutes, Rat liver microsome” value (shortened to “% of compound remained … Rat liver microsome”) is listed as “A”. In addition, in series [4], the remaining activity at 0.1 µM is below 70%.
As for `[2H]C(c1c[nH]c2ncccc12)n1ccc2c(NC(=O)Nc3cc(Cl)ccc3OC)cccc21` (stereo not drawn) [Example 18, 1-(5-chloro-2-methoxyphenyl)-3-[1-[deuterio(1H-pyrrolo[2,3-b]pyridin-3-yl)methyl]indol-4-yl]urea], the “% of compound remained at the 30th minutes, Mouse liver microsome” value in series [1] is reported as “A”. In series [2], the “% C-Met kinase activity remains” value is “A (the percentage of kinase activity remains is below 70%)”. In addition, the “% of compound remained … Rat liver microsome” value in series [3] is “A”. The remaining activity at 0.1 µM in series [4] is below 70%.
Consider `Cl.[2H]C([2H])([2H])Oc1ccc(Cl)cc1NC(=O)Nc1cccc2c1CCN2C([2H])([2H])c1ccnc2[nH]ccc12` [Example 7, 1-[5-Chloro-2-(trideuteriomethoxy)phenyl]-3-[1-[dideuterio(1H-pyrrolo[2,3-b]pyridin-4-yl)methyl]indolin-4-yl]urea hydrochloride], for which the “% of compound remained at the 30th minutes, Mouse liver microsome” value in series [1] was “A”. The “% C-Met kinase activity remains” value in series [2] is recorded as “A (the percentage of kinase activity remains is below 70%)”. In addition, the “% of compound remained … Rat liver microsome” value in series [3] is “A”. In addition, the remaining activity at 0.1 µM in series [4] is below 70%.
